Measurements: patent publication US20250230171A1 (MOMA Therapeutics, Inc., priority 2023, published 2025)
Read-outs that look alike come from different tables or passages of the source.

What was measured:
DLD1 WT cells = assay: 7-day cell viability assay (CellTiter-Glo), DLD1 parental (WT); format: cell-based, human; details: 7-day viability, n=2
[1] = biological target: biotinylated Avi-POLθ[2-894] (Homo sapiens (Human), UniProt O75417); assay: POLθ ATPase assay (ADP-Glo); details: n=2; read-out: Biochemical ATPase ADPGlo IC50
biotinylated Avi-POLθ[2-894], sequence (O75417 2-894): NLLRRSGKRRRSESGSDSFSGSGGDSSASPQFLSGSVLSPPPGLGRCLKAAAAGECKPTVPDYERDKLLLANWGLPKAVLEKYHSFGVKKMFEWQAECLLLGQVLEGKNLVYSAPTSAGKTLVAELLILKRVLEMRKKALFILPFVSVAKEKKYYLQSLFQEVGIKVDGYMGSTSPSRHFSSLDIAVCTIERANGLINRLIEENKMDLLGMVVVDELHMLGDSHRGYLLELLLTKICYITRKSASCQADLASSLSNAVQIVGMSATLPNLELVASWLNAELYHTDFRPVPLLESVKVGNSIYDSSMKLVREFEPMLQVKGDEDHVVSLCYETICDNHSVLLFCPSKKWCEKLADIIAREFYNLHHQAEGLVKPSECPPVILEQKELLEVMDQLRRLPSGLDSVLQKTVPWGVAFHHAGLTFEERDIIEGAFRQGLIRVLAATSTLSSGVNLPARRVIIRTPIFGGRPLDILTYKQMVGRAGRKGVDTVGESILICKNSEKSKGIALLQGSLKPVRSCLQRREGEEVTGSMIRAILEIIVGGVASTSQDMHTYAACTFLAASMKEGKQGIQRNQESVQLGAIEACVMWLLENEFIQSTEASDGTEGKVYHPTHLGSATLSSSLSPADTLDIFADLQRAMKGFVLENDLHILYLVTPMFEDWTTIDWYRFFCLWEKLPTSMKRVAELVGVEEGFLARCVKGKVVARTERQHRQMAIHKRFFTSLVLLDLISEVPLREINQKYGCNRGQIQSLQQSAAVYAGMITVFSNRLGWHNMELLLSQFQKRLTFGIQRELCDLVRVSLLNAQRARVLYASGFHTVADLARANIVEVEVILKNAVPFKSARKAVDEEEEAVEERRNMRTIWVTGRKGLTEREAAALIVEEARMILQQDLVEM

DLD1 BRCA2 (−/−) cells = assay: 7-day cell viability assay (CellTiter-Glo), DLD1 BRCA2 (−/−); format: cell-based, human; details: 7-day viability, n=2, read-out: Viability IC50 (uM) DLD1 BRCA2 null
Outline: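 7-day growth assay in DLD1 cells with or without BRCA2; seeding densities chosen to keep log-linear growth. Compound: 10 uM top, 3-fold, 9 points. Endpoint: CTG ATP luminescence at RT.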

Row | SMILES | IC50 [1] [nM] | IC50 (DLD1 BRCA2 (−/−) cells; Homo sapiens, DLD-1, 168 h) [µM] | IC50 (DLD1 WT cells; Homo sapiens, DLD-1, 168 h) [µM] | IC50 (DLD1 WT cells) [µM] | IC50 (DLD1 BRCA2 (−/−) cells) [µM]
1 | COc1cnc(Cl)cc1-c1cc(C)ncc1C(=O)Nc1nc2c(s1)CN(C(=O)c1cc(C(C)C)n(C)n1)C2 [Example 95, 2′-chloro-N-(5-(5-isopropyl-1-methyl-1H-pyrazole-3-carbonyl)-5,6-dihydro-4H-pyrrolo[3,4-d]thiazol-2-yl)-5′-methoxy-6-methyl-[4,4′-bipyridine]-3-carboxamide] | 1 to 15 | 0.001 to 0.1 | ≥ 10 | – | –
2 | COc1cn2cncc2cc1-c1cc(C)ncc1C(=O)Nc1nc2c(s1)CN(C(=O)c1ccc(C(F)F)cn1)C2 [Example 117] | 1 to 15 | 0.001 to 0.1 | ≥ 10 | – | –
3 | COc1ncc(Cl)cc1-c1cc(C)ncc1C(=O)Nc1nc2c(s1)CN(C(=O)c1ccccn1)C2 [Example 118] | 1 to 15 | 0.001 to 0.1 | 2 to 5 | – | –
4 | COc1ccc(C#N)cc1-c1cc(C)ncc1C(=O)Nc1nc2c(s1)CN(C(=O)c1ccc(C(F)F)cn1)C2 [Example 122] | 1 to 15 | 0.001 to 0.1 | 5 to 10 | – | –
5 | COc1ccc(C#N)cc1-c1cc(C)ncc1C(=O)Nc1nc2c(s1)CN(C(=O)c1c(Cl)cnn1C)C2 [Example 123] | 1 to 15 | 0.001 to 0.1 | ≥ 10 | – | –
6 | COc1cnc(Cl)cc1-c1cc(C)ncc1C(=O)Nc1nc2c(s1)CC(Nc1ccc(O)cc1)CC2 (stereo not drawn) [Example 135] | 1 to 15 | 0.5 to 2 | 5 to 10 | – | –
7 | COc1cnc(Cl)cc1-c1cc(C)ncc1C(=O)Nc1nc2c(s1)CN(C(=O)C1CC3(CC(OC)C3)C1)C2 (stereo not drawn) [Example 140] | 1 to 15 | 0.001 to 0.1 | 5 to 10 | – | –
8 | COc1cnc(Cl)cc1-c1cc(C)ncc1C(=O)Nc1nc2c(s1)CC(N[C@H]1C[C@H](O)C1)CC2 (stereo partly drawn) [Example 141, 2′-Chloro-N-(6-(((1r,3r)-3-hydroxycyclobutyl)amino)-4,5,6,7-tetrahydrobenzo[d]thiazol-2-yl)-5′-methoxy-6-methyl-[4.4′-bipyridine]-3-carboxamide] | 1 to 15 | – | – | ≥ 10 | 0.001 to 0.1
9 | COc1cnc(Cl)cc1-c1cc(C)ncc1C(=O)Nc1nc2c(s1)CN(C(=O)c1c(OC)cnn1C)C2 [Example 146] | 1 to 15 | 0.001 to 0.1 | ≥ 10 | – | –
10 | COc1cnc(Cl)cc1-c1cc(C)ncc1C(=O)Nc1nc2c(s1)CN(C(=O)C1CC3(CC(O)C3)C1)C2 (stereo not drawn) [Example 148] | 1 to 15 | 0.1 to 0.25 | ≥ 10 | – | –
11 | COc1cnc(Cl)cc1-c1cc(C)ncc1C(=O)Nc1nc2c(s1)CN(C(=O)c1c(Cl)cnn1C)C2 [Example 156] | 1 to 15 | 0.001 to 0.1 | ≥ 10 | – | –

More lines, main results first:

Row | IC50 [1] [nM] | IC50 (DLD1 BRCA2 (−/−) cells; Homo sapiens, DLD-1, 168 h) [µM] | SMILES | IC50 (DLD1 WT cells; Homo sapiens, DLD-1, 168 h) [µM] | IC50 (DLD1 WT cells) [µM] | IC50 (DLD1 BRCA2 (−/−) cells) [µM]
12 | 1 to 15 | 0.001 to 0.1 | COc1ccc(C(=O)N2Cc3nc(NC(=O)c4cnc(C)cc4-c4cc(Cl)ncc4OC)sc3C2)nc1 [Example 121] | ≥ 10 | – | –
13 | 1 to 15 | 0.001 to 0.1 | COc1cnc(Cl)cc1-c1cc(C)ncc1C(=O)Nc1nc2c(s1)CN(C(=O)c1ccc(C(F)(F)F)cn1)C2 [Example 132] | 5 to 10 | – | –
14 | 1 to 15 | 0.001 to 0.1 | COc1cnc(Cl)cc1-c1cc(C)ncc1C(=O)Nc1nc2c(s1)CN(C(=O)c1ncccc1OC(F)F)C2 [Example 145] | ≥ 10 | – | –
15 | 1 to 15 | 0.5 to 2 | COc1ccncc1C(=O)N1Cc2nc(NC(=O)c3cnc(C)cc3-c3cc(Cl)ncc3OC)sc2C1 [Example 155] | ≥ 10 | – | –
16 | 1 to 15 | 0.25 to 0.5 | COc1cnc(Cl)cc1-c1cc(C)ncc1C(=O)Nc1nc2c(s1)CN(C(=O)c1nn(C)cc1OC)C2 [Example 157] | ≥ 10 | – | –
17 | 1 to 15 | 0.1 to 0.25 | COc1cnc(Cl)cc1-c1cc(C)ncc1C(=O)Nc1nc2c(s1)CN(C(=O)c1ncccc1C(F)F)C2 [Example 158] | ≥ 10 | – | –
18 | 1 to 15 | 0.1 to 0.25 | COc1cnc(Cl)cc1-c1cc(C)ncc1C(=O)Nc1nc2c(s1)CN(C(=O)c1ccn(C(F)F)n1)C2 [Example 159] | ≥ 10 | – | –
